Test results published in patent publication US12043613B2, “Inhibitors of SARM1” (Disarm Therapeutics, Inc., priority 2020, dated 2024).

What follows are compounds tested against T1, SARM1 (ARM-SAM-TIR, full length SARM1) (Homo sapiens, UniProt Q6SZW1) (assay: biochemical). Conditions: SARM1 IC50 (nM), ARM-SAM-TIR lysate 5 μg/mL from NRK1-HEK293T cells, 2 h pre-incubation, 5 uM NAD+, 2 hr room temperature.
T1 sequence (Q6SZW1 with tags, fused parts or gaps): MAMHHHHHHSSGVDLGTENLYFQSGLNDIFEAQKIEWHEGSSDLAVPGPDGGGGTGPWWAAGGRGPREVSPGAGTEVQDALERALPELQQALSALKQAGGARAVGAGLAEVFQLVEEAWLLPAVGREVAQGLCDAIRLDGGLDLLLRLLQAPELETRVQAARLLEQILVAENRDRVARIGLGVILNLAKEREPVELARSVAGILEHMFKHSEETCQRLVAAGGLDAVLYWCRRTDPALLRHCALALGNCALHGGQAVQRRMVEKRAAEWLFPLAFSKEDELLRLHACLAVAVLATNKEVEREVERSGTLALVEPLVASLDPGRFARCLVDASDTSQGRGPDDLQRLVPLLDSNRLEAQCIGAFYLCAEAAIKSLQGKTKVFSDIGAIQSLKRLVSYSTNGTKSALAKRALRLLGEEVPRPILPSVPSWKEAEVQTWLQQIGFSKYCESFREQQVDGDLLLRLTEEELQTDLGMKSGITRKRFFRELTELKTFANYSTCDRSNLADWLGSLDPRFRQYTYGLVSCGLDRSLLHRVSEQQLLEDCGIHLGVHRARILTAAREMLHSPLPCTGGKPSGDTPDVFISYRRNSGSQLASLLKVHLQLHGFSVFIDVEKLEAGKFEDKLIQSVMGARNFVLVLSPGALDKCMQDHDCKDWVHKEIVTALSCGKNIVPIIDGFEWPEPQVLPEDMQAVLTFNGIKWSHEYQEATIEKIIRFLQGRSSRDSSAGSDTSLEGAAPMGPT
Experimental: This assay makes use of full length SARM1, which encompasses the ARM, SAM and TIR domains.
Preparation of ARM-SAM-TIR lysate (STL)
NRK1-HEK293T cells were seeded onto 150 cm^2 plates at 20×10^6 cells per plate. The next day, the cells were transfected with 15 g ARM-SAM-TIR expression plasmid, SEQ ID NO: 1.
The cultures were supplemented with 1 mM NR at time of transfection to minimize toxicity from ARM-SAM-TIR overexpression. Forty-eight hours after transfection, cells were harvested, pelleted by centrifugation at 1,000 rpm (Sorvall ST 16R centrifuge, Thermo Fisher), and washed once with cold PBS (0.01 M phosphate buffered saline NaCl 0.138 M; KCl 0.0027 M; pH 7.4). The cells were resuspended in PBS with protease inhibitors (cOmplete™ protease inhibitor cocktail, Roche product #11873580001) and cell lysates were prepared by sonication (Branson Sonifer 450, output=3, 20 episodes of stroke). The lysates were centrifuged (12,000×g for 10 min at 4° C.) to remove cell debris and the supernatants (containing ARM-SAM-TIR protein) were stored at −80° C. for later use in the in vitro ARM-SAM-TIR NADase assay (see below). Protein concentration was determined by the Bicinchoninic (BCA) method and used to normalize lysate concentrations.
ARM-SAM-TIR IC50 assay of Formula I compounds.
The enzymatic assay was performed in a 384-well polypropylene plate in Dulbecco's PBS buffer in a final assay volume of 20 μL. ARM-SAM-TIR lysate with a final concentration of 5 μg/mL was pre-incubated with the respective compound at 1% DMSO final assay concentration over 2h at room temperature. The reaction was initiated by addition of 5 uM final assay concentration of NAD+ as substrate. After a 2 hr room temperature incubation, the reaction was terminated with 40 μL of stop solution of 7.5% trichloroactetic acid in acetonitrile. The NAD+ and ADPR concentrations were analyzed by a RapidFire High Throughput Mass Spectrometry System (Agilent Technologies, Santa Clara, Calif.) using an API4000 triple quadrupole mass spectrometer (AB Sciex Framingham, Mass.).

| IC50 [nM] | SMILES |
| --- | --- |
| 101 to 500 | N#Cc1cc(CC2CCN(c3cc(-c4ccncc4)n[nH]3)C2=O)ccc1Cl (centres unmarked) [Compound I-118] |
| < 50 | O=C1C(Cc2ccc(F)nc2)CCN1c1cc(-c2ccncc2)n[nH]1 (centres unmarked) [Compound I-67] |
| 51 to 100 | N#Cc1c(-c2ccncc2)n[nH]c1N1CCC(Cc2ccc(F)c(F)c2)C1=O (centres unmarked) [Compound I-53] |
| > 1000 | O=C1C(Cc2ccc(Cl)nc2)CNCN1c1cc(-c2ccncc2)n[nH]1 (centres unmarked) [Compound I-64] |
| < 50 | O=C1C(Cc2ccc(Cl)cc2)CCCN1c1cc(-c2ccncc2)n[nH]1 (centres unmarked) [Compound I-19] |
| 101 to 500 | N#Cc1ccc(CC2CCN(c3[nH]nc(-c4ccncc4)c3F)C2=O)cc1F (centres unmarked) [Compound I-25] |
| 101 to 500 | O=C1C(Cc2ccc(Cl)nc2)CCN1c1nnc(-c2ccncc2)[nH]1 (centres unmarked) [Compound I-9] |
| 501 to 1000 | CC1(Cc2ccc(Cl)nc2)CCCN(c2nnc(-c3ccncc3)[nH]2)C1=O (centres unmarked) [Compound I-63] |
| > 1000 | Cc1c(-c2ccncc2)n[nH]c1N1CCCC(Cc2ccc(Cl)cc2)C1=O (centres unmarked) [Compound I-50] |
| 51 to 100 | Cc1c(-c2ccncc2)n[nH]c1N1CCC(Cc2ccc(F)c(F)c2)C1=O (centres unmarked) [Compound I-49] |
| 101 to 500 | O=C1C(Cc2ccc(Cl)cc2)NCN1c1cc(-c2ccncc2)n[nH]1 (centres unmarked) [Compound I-59] |
| 101 to 500 | O=C1C(Cc2ccc(C(F)(F)F)nc2)CCN1c1cc(-c2ccncc2)n[nH]1 (centres unmarked) [Compound I-112] |
| < 50 | O=C1C(Cc2ccc(F)c(F)c2)CCN1c1cc(-c2ccncc2)n[nH]1 (centres unmarked) [Compound I-16] |
| > 1000 | N[C@H]1CC(Cc2ccc(Cl)nc2)C(=O)N(c2nnc(-c3ccncc3)[nH]2)C1 (single isomer, unassigned) [Compound I-61] |
| 51 to 100 | [2H]C1(Cc2ccc(F)nc2)C(=O)N(c2cc(-c3ccncc3)n[nH]2)C([2H])([2H])C([2H])([2H])C1([2H])[2H] (centres unmarked) [Compound I-70] |
| > 1000 | O=C1C(Cc2ccc(Cl)nc2)CCCN1c1[nH]nc(-c2ccncc2)c1Cl (centres unmarked) [Compound I-29] |
| 51 to 100 | O=C1C(Cc2ccc(Cl)nc2)CCCN1c1nnc(-c2ccncc2)[nH]1 (centres unmarked) [Compound I-55] |

| IC50 [nM] | SMILES |
| --- | --- |
| < 50 | O=C1C(Cc2ccc(F)nc2)CCN1c1[nH]nc(-c2ccncc2)c1F (centres unmarked) [Compound I-33] |
| < 50 | O=C1C(Cc2ccc(Cl)cc2)CCCN1c1nnc(-c2ccncc2)[nH]1 (centres unmarked) [Compound I-5] |
| 51 to 100 | O=C1C(Cc2ccc(Cl)cc2)OCCN1c1cc(-c2ccncc2)n[nH]1 (centres unmarked) [Compound I-47] |
| 501 to 1000 | N[C@H]1CC(Cc2ccc(Cl)nc2)C(=O)N(c2cc(-c3ccncc3)n[nH]2)C1 (some centres unmarked) [Compound I-60] |
| < 50 | O=C1C(Cc2ccc(Cl)nc2)CCN1c1[nH]nc(-c2ccncc2)c1Cl (centres unmarked) [Compound I-34] |
| 101 to 500 | N#Cc1cc(CC2CCN(c3cc(-c4ccncc4)n[nH]3)C2=O)ccc1F (centres unmarked) [Compound I-116] |
| < 50 | O=C1C(Cc2ccc(F)nc2)CCCN1c1nnc(-c2ccncc2)[nH]1 (centres unmarked) [Compound I-23] |
| < 50 | O=C1C(Cc2ccc(Cl)c(F)c2)CCCN1c1cc(-c2ccncc2)n[nH]1 (centres unmarked) [Compound I-20] |
| < 50 | O=C1C(Cc2ccc(Cl)nc2)CCN1c1cc(-c2ccncc2)n[nH]1 (centres unmarked) [Compound I-17] |
| 51 to 100 | N#Cc1ccc(CC2CCN(c3cc(-c4ccncc4)n[nH]3)C2=O)cc1F (centres unmarked) [Compound I-37] |
| 101 to 500 | O=C1C(Cc2ccc(F)cc2)CCN1c1nnc(-c2ccncc2)[nH]1 (centres unmarked) [Compound I-7] |
| 101 to 500 | N#Cc1ccc(CC2CCN(c3cc(-c4ccncc4)n[nH]3)C2=O)cc1 (centres unmarked) [Compound I-114] |
| 101 to 500 | N#Cc1c(-c2ccncc2)n[nH]c1N1CCCC(Cc2ccc(Cl)nc2)C1=O (centres unmarked) [Compound I-68] |
| < 50 | O=C1C(Cc2ccc(F)nc2)CCN1c1[nH]nc(-c2ccncc2)c1Cl (centres unmarked) [Compound I-32] |
| 101 to 500 | O=C1C(Cc2ccc(F)nc2)CCN1c1nnc(-c2ccncc2)[nH]1 (centres unmarked) [Compound I-39] |
| 101 to 500 | N#Cc1ccc(CC2CCCN(c3cc(-c4ccncc4)n[nH]3)C2=O)cn1 (centres unmarked) [Compound I-94] |
| < 50 | [2H]C([2H])(c1ccc(Cl)nc1)C1([2H])C(=O)N(c2cc(-c3ccncc3)n[nH]2)C([2H])([2H])C([2H])([2H])C1([2H])[2H] (centres unmarked) [Compound I-79] |

More lines, now with the values behind:

| SMILES | IC50 [nM] |
| --- | --- |
| [2H]C([2H])(c1ccc(Cl)nc1)C1([2H])C(=O)N(c2cc(-c3ccncc3)n[nH]2)C([2H])([2H])C([2H])([2H])C1([2H])[2H] (single isomer, unassigned) [I-79* (peak 1)] | < 50 |
| Cc1c(-c2ccncc2)n[nH]c1N1CCC(Cc2ccc(Cl)nc2)C1=O (single isomer, unassigned) [I-48* (peak 1)] | 101 to 500 |
| O=C1C(Cc2ccc(F)cc2)CCN1c1nnc(-c2ccncc2)[nH]1 (single isomer, unassigned) [I-7* (peak 2)] | < 50 |
| O=C1C(Cc2cnc(Cl)c(F)c2)CCCN1c1cc(-c2ccncc2)n[nH]1 (single isomer, unassigned) [I-66* (peak 2)] | 101 to 500 |
| N#Cc1ccc(CC2CCN(c3cc(-c4ccncc4)n[nH]3)C2=O)cc1F (single isomer, unassigned) [I-37* (peak 1)] | 51 to 100 |
| O=C1C(Cc2ccc(Cl)cc2)CCCN1c1cc(-c2ccncc2)n[nH]1 (single isomer, unassigned) [I-19* (peak 1)] | < 50 |
| O=C1C(Cc2ccc(Cl)cc2)CNCCN1c1nc(-c2ccncc2)n[nH]1 (single isomer, unassigned) [I-38* (peak 2)] | > 1000 |
| O=C1N(c2nc(-c3ccncc3)n[nH]2)CCC1(F)Cc1ccc(Cl)nc1 (single isomer, unassigned) [I-42* (peak 1)] | > 1000 |
| O=C1C(Cc2ccc(F)nc2)CCN1c1[nH]nc(-c2ccncc2)c1Cl (single isomer, unassigned) [I-32* (peak 2)] | < 50 |
| O=C1C(Cc2ccc(Cl)cc2)CCCN1c1nnc(-c2ccncc2)[nH]1 (single isomer, unassigned) [I-5* (peak 1)] | < 50 |
| O=C1C(Cc2ccc(Cl)nc2)CCCCN1c1cc(-c2ccncc2)n[nH]1 (single isomer, unassigned) [I-40* (peak 1)] | > 1000 |
| O=C1[C@@H](Cc2ccc(Cl)cc2)NCCN1c1cc(-c2ccncc2)n[nH]1 [Compound I-1-b] | > 1000 |
| N#Cc1ccc(CC2CCN(c3nnc(-c4ccncc4)[nH]3)C2=O)cc1F (single isomer, unassigned) [I-26* (peak 1)] | 101 to 500 |
| Cc1c(-c2ccncc2)n[nH]c1N1CCC(Cc2ccc(F)c(F)c2)C1=O (single isomer, unassigned) [I-49* (peak 1)] | 101 to 500 |
| O=C1C(Cc2ccc(Cl)nc2)CCN1c1[nH]nc(-c2ccncc2)c1Cl (single isomer, unassigned) [I-34* (peak 1)] | < 50 |
| O=C1C(Cc2ccc(Cl)nc2)CCN1c1nnc(-c2ccncc2)[nH]1 (single isomer, unassigned) [I-9* (peak 1)] | 101 to 500 |
| O=C1C(Cc2ccc(F)nc2)CCN1c1cc(-c2ccncc2)n[nH]1 (single isomer, unassigned) [I-67* (peak 1)] | 51 to 100 |
| O=C1C(Cc2cnc(Cl)c(F)c2)CCCN1c1cc(-c2ccncc2)n[nH]1 (single isomer, unassigned) [I-66* (peak 1)] | < 50 |
| O=C1C(Cc2ccc(Cl)cc2)CCN1c1nnc(-c2ccncc2)[nH]1 (single isomer, unassigned) [I-4* (peak 1)] | < 50 |
| O=C1C(Cc2cnc(Cl)c(F)c2)CCN1c1cc(-c2ccncc2)n[nH]1 (single isomer, unassigned) [I-65* (peak 1)] | < 50 |
| CN1CCN(c2cc(-c3ccncc3)n[nH]2)C(=O)[C@@H]1Cc1ccc(Cl)cc1 [Compound I-2-a] | > 1000 |
| O=C1C(Cc2ccc(F)nc2)CCN1c1[nH]nc(-c2ccncc2)c1F (single isomer, unassigned) [I-33* (peak 2)] | < 50 |
| [2H]C([2H])(c1ccc(Cl)nc1)C1([2H])C(=O)N(c2cc(-c3ccncc3)n[nH]2)C([2H])([2H])C([2H])([2H])C1([2H])[2H] (single isomer, unassigned) [I-79* (peak 2)] | 101 to 500 |
| N#Cc1ccc(CC2CCN(c3[nH]nc(-c4ccncc4)c3F)C2=O)cc1F (single isomer, unassigned) [I-25* (peak 1)] | 101 to 500 |
| O=C1C(Cc2ccc(F)cc2)CCN1c1nnc(-c2ccncc2)[nH]1 (single isomer, unassigned) [I-7* (peak 1)] | 101 to 500 |
| O=C1C(Cc2ccc(Cl)cc2)CNCCN1c1nc(-c2ccncc2)n[nH]1 (single isomer, unassigned) [I-38* (peak 1)] | 501 to 1000 |
| O=C1C(Cc2ccc(Cl)cc2)OCCN1c1cc(-c2ccncc2)n[nH]1 (single isomer, unassigned) [I-47* (peak 1)] | 51 to 100 |
| CC1(Cc2ccc(Cl)cc2)CCCN(c2nc(-c3ccncc3)n[nH]2)C1=O (single isomer, unassigned) [I-54* (peak 1)] | 501 to 1000 |
